Reference: the NIST ThermoML archive (doi:10.1016/j.jct.2016.10.010)
“And” between values parts separate entries of the source, which are not always exact repeats. Equal values may be shown once. Numbers after ± are expanded uncertainties.

Columns and labels:
[1] = for vapor or sublimation pressure: Transpiration method; for Normal melting temperature: DTA
[2] = Molar enthalpy of transition or fusion; settings: Crystal; DSC

Compound	vapor or sublimation pressure ([1]; 431.15 K, Crystal)	vapor or sublimation pressure ([1]; 437.15 K, Crystal)	vapor or sublimation pressure ([1]; 439.15 K, Crystal)	vapor or sublimation pressure ([1]; 441.15 K, Crystal)	vapor or sublimation pressure ([1]; 443.15 K, Crystal)	vapor or sublimation pressure ([1]; 445.15 K, Crystal)	vapor or sublimation pressure ([1]; 447.15 K, Crystal)	vapor or sublimation pressure ([1]; 449.15 K, Crystal)	vapor or sublimation pressure ([1]; 451.15 K, Crystal)	vapor or sublimation pressure ([1]; 453.15 K, Crystal)	Normal melting temperature ([1]; Crystal)	Molar enthalpy of transition or fusion [2]	vapor or sublimation pressure ([1]; 436.15 K, Crystal)	vapor or sublimation pressure ([1]; 438.15 K, Crystal)	vapor or sublimation pressure ([1]; 440.15 K, Crystal)	vapor or sublimation pressure ([1]; 442.15 K, Crystal)	vapor or sublimation pressure ([1]; 444.15 K, Crystal)	vapor or sublimation pressure ([1]; 446.15 K, Crystal)	other results
CCN1CCN(c2cc3c(cc2F)c(=O)c(C(=O)O)cn3C2CC2)CC1 [Enrofloxacin]	1.79e-06 ± 2.3e-07 kPa	2.92e-06 ± 3.5e-07 kPa	3.41e-06 ± 4e-07 kPa	4.04e-06 ± 4.7e-07 kPa	4.71e-06 ± 5.4e-07 kPa	5.49e-06 ± 6.3e-07 kPa	6.61e-06 ± 7.4e-07 kPa	7.56e-06 ± 8.5e-07 kPa	8.91e-06 ± 9.9e-07 kPa	1.035e-05 ± 1.1e-06 kPa	221.6 ± 0.7 °C	7.86 ± 0.287 kcal/mol	–	–	–	–	–	–	vapor or sublimation pressure ([1]; 433.15 K, Crystal): 2.13e-06 ± 2.6e-07 kPa; vapor or sublimation pressure ([1]; 435.15 K, Crystal): 2.5e-06 ± 3e-07 kPa
O=C(O)c1ccccc1 [benzoic acid]	–	–	–	–	–	–	–	–	–	–	–	–	–	–	–	–	–	–	vapor or sublimation pressure ([1]; 307.15 K, Crystal): 0.000285 ± 4e-05 kPa; vapor or sublimation pressure ([1]; 323.15 K, Crystal): 0.001674 ± 0.00019 kPa; vapor or sublimation pressure ([1]; 338.15 K, Crystal): 0.007513 ± 0.00085 kPa; vapor or sublimation pressure ([1]; 354.15 K, Crystal): 0.0316 ± 0.0034 kPa
O=C(O)c1cn(C2CC2)c2cc(N3CCNCC3)c(F)cc2c1=O [ciprofloxacin]	–	–	–	–	–	–	–	–	–	–	270 ± 2.1 °C	–	1.95e-06 ± 2.5e-07 kPa	2.43e-06 ± 3e-07 kPa	2.85e-06 ± 3.4e-07 kPa	3.54e-06 ± 4.2e-07 kPa	4.3e-06 ± 5e-07 kPa	4.97e-06 ± 5.7e-07 kPa	vapor or sublimation pressure ([1]; 448.15 K, Crystal): 5.94e-06 ± 6.8e-07 kPa; vapor or sublimation pressure ([1]; 450.15 K, Crystal): 7.09e-06 ± 8e-07 kPa; vapor or sublimation pressure ([1]; 452.15 K, Crystal): 8.4e-06 ± 9.5e-07 kPa; vapor or sublimation pressure ([1]; 454.15 K, Crystal): 1.045e-05 ± 1.2e-06 kPa; vapor or sublimation pressure ([1]; 456.15 K, Crystal): 1.228e-05 ± 1.4e-06 kPa; vapor or sublimation pressure ([1]; 458.15 K, Crystal): 1.461e-05 ± 1.6e-06 kPa; vapor or sublimation pressure ([1]; 460.15 K, Crystal): 1.764e-05 ± 1.9e-06 kPa
C[C@H]1COc2c(N3CCN(C)CC3)c(F)cc3c(=O)c(C(=O)O)cn1c23 [levofloxacin]	–	5.71e-06 ± 6.5e-07 kPa	6.66e-06 ± 7.6e-07 kPa	8.35e-06 ± 9.4e-07 kPa	9.72e-06 ± 1.1e-06 kPa	1.135e-05 ± 1.3e-06 kPa	1.364e-05 ± 1.5e-06 kPa	1.607e-05 ± 1.8e-06 kPa	1.952e-05 ± 2.2e-06 kPa	2.326e-05 ± 2.6e-06 kPa	233.0 ± 3.1 °C	5.26 ± 1.05 kcal/mol	–	–	–	–	–	–	vapor or sublimation pressure ([1]; 455.15 K, Crystal): 2.722e-05 ± 3e-06 kPa; vapor or sublimation pressure ([1]; 457.15 K, Crystal): 3.146e-05 ± 3.4e-06 kPa; vapor or sublimation pressure ([1]; 459.15 K, Crystal): 3.689e-05 ± 4e-06 kPa; Normal melting temperature ([1]; Metastable crystal): 227.0 ± 3.1 °C and 230.5 ± 3.1 °C
CCn1cc(C(=O)O)c(=O)c2cc(F)c(N3CCNCC3)cc21 [norfloxacin]	2.66e-06 ± 3.2e-07 kPa	–	–	–	–	–	–	–	–	–	220.4 ± 2.2 °C	8.63 ± 1.74 kcal/mol	3.92e-06 ± 4.5e-07 kPa	4.53e-06 ± 5.2e-07 kPa	5.26e-06 ± 6e-07 kPa	6.02e-06 ± 6.8e-07 kPa	7.01e-06 ± 7.9e-07 kPa	8.32e-06 ± 9.3e-07 kPa	vapor or sublimation pressure ([1]; 423.15 K, Crystal): 1.3e-06 ± 1.8e-07 kPa; vapor or sublimation pressure ([1]; 425.15 K, Crystal): 1.57e-06 ± 2.1e-07 kPa; vapor or sublimation pressure ([1]; 427.15 K, Crystal): 1.86e-06 ± 2.4e-07 kPa; vapor or sublimation pressure ([1]; 429.15 K, Crystal): 2.21e-06 ± 2.7e-07 kPa; vapor or sublimation pressure ([1]; 432.15 K, Crystal): 2.85e-06 ± 3.4e-07 kPa; vapor or sublimation pressure ([1]; 434.15 K, Crystal): 3.35e-06 ± 3.9e-07 kPa; Triple point temperature ([1]; Crystal 2, DSC): 468.7 ± 0.8 K
